Reference: US7037656B2, “Methods and compositions for identifying ligands for nuclear receptors” (priority 2000, dated 2006)

Key:
Experiment in all cases: Yeast 6x EcRE-lacZ β-galactosidase transactivation assay
[1] = target: T1, Cf ΔA/B EcR + RXR α + GRIP1 (Choristoneura fumiferana, UniProt O77240); assay type: cell-based, Choristoneura fumiferana; human; settings: RH 5992 10 μM, 4 hours, DMSO control 0.270
T1 construct: human ubiquitin (76 aa) (N, cleaved yes); expressed in transfected cells; host or cells: yeast (Saccharomyces cerevisiae)
Procedure: The human RXR α (Genbank accession number X52773), mouse RXR β (Genbank accession number X66224) or mouse RXR γ (Genebank accession number X66225) subtypes were expressed in yeast-E. coli multicopy 2μ expression plasmids under regulation of CUP1 promoter with the LEU2 selective marker (1).
(§1) Briefly, yeast cells are cultured in 5 mL of YPD liquid medium overnight at 30° C. The cell culture was diluted 1:20 in YPD media and further grown until cell density reached an O.D of 0.6. at OD600. The cells were pelleted by centrifugation and washed with 10 mL of TE+0.1M lithium acetate. Cells are then resuspended in 10 mL TE+0.1M lithium acetate and incubated at 30° C. for 1 hour. Cells are collected and resuspended in 0.5 mL of TE+ 0.1M lithium acetate. Aliquots of cells (50 μL), were incubated for 15 minutes at 30° C. with 1–2 μg plasmid DNA in the presence of 5 μg of denatured salmon sperm DNA as DNA carrier. In the case of co-transformation, the indicated plasmids were added simultaneously. 50% polyethyleneglycol of molecular weight 4000, diluted in TE, was added to a final concentration of 35%. DMSO was added to the transformation solution simultaneously to a final concentration 3%. The samples were mixed well by vortexing and incubated for an additional 30 minutes at 30° C. The cell mixture is then heated for 15 minutes at 42° C. […]

[2] = target: T2, Dm ΔN EcR +Cf ΔA/B USP + GRIP1 (Drosophila melanogaster, UniProt P34021); assay type: cell-based, Drosophila melanogaster; Choristoneura fumiferana; settings: RH 5992 10 μM, 4 hours, DMSO control 0.235
T2 construct: ubiquitin (human, 76 aa) (N, cleaved yes); expressed in transfected cells
Procedure: as §1, with “35%.” for “35%. DMSO was added to the transformation solution simultaneously to a final concentration 3%. The samples were mixed well by vortexing and incubated for an additional 30 minutes at 30° C. The cell mixture is then heated for 15 minutes at 42° C.”
(§2) Using the transformation method set forth above, yeast were co-transformed with a reporter gene as shown in FIG. 2 and the expression vector encoding the full-length D. melanogaster ecdysone receptor, DmEcR (FIG. 3A) in the presence or absence of the Dm EcR heterodimer partner, DmUSP (FIG. 4A). […] As the N-terminal portion of the Dm EcR receptor is reported to play a role in ligand independent transactivation, an expression vector containing an N-terminal deletion in the EcR was constructed (see FIG. 3B) and assessed in the β-galactosidase assays described above. […]

[3] = target: T3, Dm ΔN EcR + Cf USP + GRIP1 (Drosophila melanogaster, UniProt P34021); assay type: cell-based, Drosophila melanogaster; Choristoneura fumiferana; settings: RH 5992 10 μM, 4 hours, DMSO control 1.149
T3 construct: ubiquitin (human, 76 aa) (N, cleaved yes); expressed in transfected cells
Procedure: as §1, with “35%.” for “35%. DMSO was added to the transformation solution simultaneously to a final concentration 3%. The samples were mixed well by vortexing and incubated for an additional 30 minutes at 30° C. The cell mixture is then heated for 15 minutes at 42° C.”
as §2

T2 sequence (P34021 221-878, stated change not applied): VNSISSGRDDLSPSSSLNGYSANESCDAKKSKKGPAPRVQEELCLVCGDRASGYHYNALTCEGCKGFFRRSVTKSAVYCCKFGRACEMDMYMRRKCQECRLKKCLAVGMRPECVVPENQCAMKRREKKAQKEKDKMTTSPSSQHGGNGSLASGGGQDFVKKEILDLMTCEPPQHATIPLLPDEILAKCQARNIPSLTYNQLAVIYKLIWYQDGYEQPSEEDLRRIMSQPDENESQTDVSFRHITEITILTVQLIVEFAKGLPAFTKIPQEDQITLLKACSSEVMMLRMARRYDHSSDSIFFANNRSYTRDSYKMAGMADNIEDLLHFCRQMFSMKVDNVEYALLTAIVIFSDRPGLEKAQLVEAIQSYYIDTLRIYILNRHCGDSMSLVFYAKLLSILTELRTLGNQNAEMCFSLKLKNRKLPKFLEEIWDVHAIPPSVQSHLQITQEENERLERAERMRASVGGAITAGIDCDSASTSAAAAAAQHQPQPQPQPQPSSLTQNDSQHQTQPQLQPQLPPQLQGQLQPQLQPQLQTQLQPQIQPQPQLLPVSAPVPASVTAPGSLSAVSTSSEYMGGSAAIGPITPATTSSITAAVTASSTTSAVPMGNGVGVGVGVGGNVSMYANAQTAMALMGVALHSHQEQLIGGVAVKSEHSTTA
T2 sequence (O76202 with tags, fused parts or gaps partner): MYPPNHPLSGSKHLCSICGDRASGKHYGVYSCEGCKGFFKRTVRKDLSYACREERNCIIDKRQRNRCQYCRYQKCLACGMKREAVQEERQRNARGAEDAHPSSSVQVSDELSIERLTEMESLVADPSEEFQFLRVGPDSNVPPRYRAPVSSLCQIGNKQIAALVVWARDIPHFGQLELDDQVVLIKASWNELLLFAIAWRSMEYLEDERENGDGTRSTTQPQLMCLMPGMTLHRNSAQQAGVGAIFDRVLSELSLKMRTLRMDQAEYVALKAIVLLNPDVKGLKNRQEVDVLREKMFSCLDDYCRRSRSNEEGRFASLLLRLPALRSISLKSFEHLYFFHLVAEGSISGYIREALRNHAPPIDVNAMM
T3 sequence (P34021 221-878 limits assumed, stated change not applied): as the sequence (P34021 221-878, stated change not applied) above
T3 sequence (O76202 whole entry partner): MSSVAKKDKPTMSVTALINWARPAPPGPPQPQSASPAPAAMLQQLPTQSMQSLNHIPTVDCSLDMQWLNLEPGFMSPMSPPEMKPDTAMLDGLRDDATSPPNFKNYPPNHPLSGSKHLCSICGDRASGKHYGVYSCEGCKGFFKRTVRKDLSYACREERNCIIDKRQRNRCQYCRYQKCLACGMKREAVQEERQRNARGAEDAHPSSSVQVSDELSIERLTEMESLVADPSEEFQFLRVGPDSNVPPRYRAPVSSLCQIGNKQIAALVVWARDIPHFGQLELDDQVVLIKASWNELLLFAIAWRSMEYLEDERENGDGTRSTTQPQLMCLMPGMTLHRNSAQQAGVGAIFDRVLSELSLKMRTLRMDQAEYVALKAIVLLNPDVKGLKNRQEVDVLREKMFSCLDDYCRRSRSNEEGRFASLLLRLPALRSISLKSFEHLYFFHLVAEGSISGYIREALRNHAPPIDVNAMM
T3 sequence (Q61026 322-1121 partner limits assumed): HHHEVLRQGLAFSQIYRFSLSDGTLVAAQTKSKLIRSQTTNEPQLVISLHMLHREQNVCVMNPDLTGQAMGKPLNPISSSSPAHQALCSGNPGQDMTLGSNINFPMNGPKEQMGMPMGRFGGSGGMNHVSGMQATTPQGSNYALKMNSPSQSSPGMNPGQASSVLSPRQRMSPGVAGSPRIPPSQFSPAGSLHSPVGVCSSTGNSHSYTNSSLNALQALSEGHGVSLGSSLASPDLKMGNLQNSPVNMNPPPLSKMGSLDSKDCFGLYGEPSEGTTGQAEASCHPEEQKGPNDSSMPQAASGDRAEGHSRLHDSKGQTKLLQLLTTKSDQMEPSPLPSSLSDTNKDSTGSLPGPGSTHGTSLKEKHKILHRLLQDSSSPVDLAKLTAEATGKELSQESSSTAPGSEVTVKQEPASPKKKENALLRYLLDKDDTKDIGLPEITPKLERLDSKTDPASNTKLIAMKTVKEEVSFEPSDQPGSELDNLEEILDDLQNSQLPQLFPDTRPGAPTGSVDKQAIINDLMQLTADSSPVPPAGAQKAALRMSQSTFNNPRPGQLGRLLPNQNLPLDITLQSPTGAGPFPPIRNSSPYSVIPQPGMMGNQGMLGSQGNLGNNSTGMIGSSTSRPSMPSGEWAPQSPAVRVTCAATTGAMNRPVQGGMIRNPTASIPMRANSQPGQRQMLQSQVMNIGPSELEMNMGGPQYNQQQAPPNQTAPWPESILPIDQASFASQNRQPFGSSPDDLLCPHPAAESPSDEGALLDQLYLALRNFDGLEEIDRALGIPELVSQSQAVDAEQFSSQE
T1 sequence (O77240 entry or part of it, stated change not applied): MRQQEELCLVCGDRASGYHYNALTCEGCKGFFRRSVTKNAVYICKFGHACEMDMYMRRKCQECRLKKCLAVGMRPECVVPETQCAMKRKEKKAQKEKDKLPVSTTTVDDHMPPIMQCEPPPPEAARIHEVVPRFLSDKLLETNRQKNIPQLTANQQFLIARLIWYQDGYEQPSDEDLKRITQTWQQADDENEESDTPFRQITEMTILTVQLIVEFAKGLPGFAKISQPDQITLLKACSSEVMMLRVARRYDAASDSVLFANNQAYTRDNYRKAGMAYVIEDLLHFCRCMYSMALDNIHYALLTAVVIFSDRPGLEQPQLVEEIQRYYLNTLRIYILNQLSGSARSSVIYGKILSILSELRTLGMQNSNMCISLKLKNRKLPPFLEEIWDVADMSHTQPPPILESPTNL
T1 sequence (P19793 whole entry partner): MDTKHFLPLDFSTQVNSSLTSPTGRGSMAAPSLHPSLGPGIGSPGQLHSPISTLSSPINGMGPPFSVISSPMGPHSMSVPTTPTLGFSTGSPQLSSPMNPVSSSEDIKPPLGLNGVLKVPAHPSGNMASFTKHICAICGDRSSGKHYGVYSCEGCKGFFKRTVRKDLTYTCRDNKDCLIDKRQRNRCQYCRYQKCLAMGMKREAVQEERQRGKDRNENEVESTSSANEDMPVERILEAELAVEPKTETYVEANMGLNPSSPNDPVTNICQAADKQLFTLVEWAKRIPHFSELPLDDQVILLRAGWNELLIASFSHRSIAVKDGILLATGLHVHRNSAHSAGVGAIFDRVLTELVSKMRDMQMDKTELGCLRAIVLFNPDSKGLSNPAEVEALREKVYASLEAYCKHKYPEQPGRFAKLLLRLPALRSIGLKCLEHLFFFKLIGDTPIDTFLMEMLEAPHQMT

## CCc1ccc(C(=O)NN(C(=O)c2cc(C)cc(C)c2)C(C)(C)C)cc1 [RH 5992, tebufenozide]
[1]
  β-galactosidase activity: 2.063
[2]
  β-galactosidase activity: 0.590
[3]
  β-galactosidase activity: 1.409
